Target: T1, CCDC6-RET (Homo sapiens, UniProt P07949+Q16204+Q96SW2)
T1 construct: CCDC6 (natural N-terminal fusion partner, UniProt Q16204); endogenous in cells; host or cells: TPC-1 (parental, papillary thyroid carcinoma)
Experiment: Cellular RET degradation, AlphaLISA, TPC-1 cell line
Format: cell-based
Conditions: for Dmax: TPC1, human, 24 h, read-out: Cell Density TPC-1/CCDC6-RET Ymax %; for DC50: read-out: Cell Density TPC-1/CCDC6-RET DC50, half-maximal degradation concentration, TPC-1 (CCDC6-RET), 24 hrs
How it was run: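 TPC-1 papillary thyroid carcinoma cells (endogenous CCDC6-RET) in DMEM with 2% FBS, compound-treated 24 h at 37 °C. RET in lysates quantified by AlphaLISA luminescence, normalized to media-only and DMSO wells; DC50 and maximal degradation from 4-parameter logistic fit.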

T1 sequence (Q16204+P07949 fused): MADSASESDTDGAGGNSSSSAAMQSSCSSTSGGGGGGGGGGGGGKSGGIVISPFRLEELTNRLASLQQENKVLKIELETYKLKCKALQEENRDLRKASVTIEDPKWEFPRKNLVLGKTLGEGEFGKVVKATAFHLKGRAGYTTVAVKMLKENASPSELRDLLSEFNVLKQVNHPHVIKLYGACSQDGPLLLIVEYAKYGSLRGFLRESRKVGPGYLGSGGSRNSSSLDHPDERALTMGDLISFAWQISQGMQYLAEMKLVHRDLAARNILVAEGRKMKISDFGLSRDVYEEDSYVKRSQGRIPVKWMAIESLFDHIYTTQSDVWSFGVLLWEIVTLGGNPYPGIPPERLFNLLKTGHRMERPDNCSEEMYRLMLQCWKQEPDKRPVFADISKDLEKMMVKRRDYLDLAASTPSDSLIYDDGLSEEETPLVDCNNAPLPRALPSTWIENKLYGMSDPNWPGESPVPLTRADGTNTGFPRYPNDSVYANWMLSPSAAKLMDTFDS
T1 sequence (Q96SW2 whole entry, the tested form may be a part): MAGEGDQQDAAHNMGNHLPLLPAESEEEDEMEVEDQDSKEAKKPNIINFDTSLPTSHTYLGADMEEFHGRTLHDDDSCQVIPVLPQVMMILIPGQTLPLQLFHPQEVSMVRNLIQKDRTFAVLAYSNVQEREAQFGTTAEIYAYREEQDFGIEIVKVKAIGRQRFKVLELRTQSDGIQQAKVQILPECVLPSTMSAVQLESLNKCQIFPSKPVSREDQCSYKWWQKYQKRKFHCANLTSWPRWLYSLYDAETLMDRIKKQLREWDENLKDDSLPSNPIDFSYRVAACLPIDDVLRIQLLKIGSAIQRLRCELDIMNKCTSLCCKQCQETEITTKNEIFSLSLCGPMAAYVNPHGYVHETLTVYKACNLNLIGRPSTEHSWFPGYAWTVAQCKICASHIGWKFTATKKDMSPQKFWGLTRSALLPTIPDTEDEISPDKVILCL
T1 sequence (Q16531 whole entry partner, the tested form may be a part): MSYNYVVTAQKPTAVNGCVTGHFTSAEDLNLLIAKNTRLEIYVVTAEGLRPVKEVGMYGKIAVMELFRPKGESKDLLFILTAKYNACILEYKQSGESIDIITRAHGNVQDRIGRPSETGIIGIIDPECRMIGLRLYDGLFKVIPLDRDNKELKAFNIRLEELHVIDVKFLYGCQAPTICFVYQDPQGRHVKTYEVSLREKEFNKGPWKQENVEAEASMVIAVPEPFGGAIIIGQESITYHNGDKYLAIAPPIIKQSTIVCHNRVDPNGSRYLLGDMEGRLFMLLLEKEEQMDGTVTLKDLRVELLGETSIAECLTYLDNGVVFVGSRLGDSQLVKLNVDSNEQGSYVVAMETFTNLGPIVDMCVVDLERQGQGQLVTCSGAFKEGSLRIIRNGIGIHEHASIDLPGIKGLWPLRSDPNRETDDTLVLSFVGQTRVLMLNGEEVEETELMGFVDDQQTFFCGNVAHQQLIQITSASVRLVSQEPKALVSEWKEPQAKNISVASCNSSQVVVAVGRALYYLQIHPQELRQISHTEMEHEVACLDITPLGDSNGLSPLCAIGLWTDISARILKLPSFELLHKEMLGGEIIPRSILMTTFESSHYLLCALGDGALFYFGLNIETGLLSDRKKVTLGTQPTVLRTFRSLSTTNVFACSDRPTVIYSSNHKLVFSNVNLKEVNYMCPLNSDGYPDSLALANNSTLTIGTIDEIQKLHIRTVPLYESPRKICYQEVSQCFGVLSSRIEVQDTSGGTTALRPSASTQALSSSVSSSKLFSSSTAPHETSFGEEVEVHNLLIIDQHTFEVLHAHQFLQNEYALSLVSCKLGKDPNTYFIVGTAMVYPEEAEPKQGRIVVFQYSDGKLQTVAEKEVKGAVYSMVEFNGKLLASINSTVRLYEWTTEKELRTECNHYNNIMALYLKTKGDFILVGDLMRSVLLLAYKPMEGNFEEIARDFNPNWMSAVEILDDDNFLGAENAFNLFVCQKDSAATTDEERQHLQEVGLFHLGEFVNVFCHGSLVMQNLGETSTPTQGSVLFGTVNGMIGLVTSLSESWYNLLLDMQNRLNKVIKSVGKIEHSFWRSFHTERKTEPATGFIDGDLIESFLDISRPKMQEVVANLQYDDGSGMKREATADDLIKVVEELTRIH

| Dmax [%] | DC50 [nM] | SMILES |
| --- | --- | --- |
| 60 to 90 | 2 to 10 | CCOc1cc(-c2ccc(N3CCC(CN4CCN(CC5CCN(C(=O)c6ccc7c(c6)C(=O)N(C6CCC(=O)NC6=O)C7)CC5)CC4)(NC(=O)c4cc(F)ccc4F)CC3)nc2)c2c(C#N)cnn2c1 (centres unmarked) [Example 110, N-[1-(5-{3-cyano-6-ethoxypyrazolo[1,5-a]pyridin-4-yl}pyridin-2-yl)-4-{[4-({1-[2-(2,6-dioxopiperidin-3-yl)-3-oxo-2,3-dihydro-1H-isoindole-5-carbonyl]piperidin-4-yl}methyl)piperazin-1-yl]methyl}piperidin-4-yl]-2,5-difluorobenzamide] |
| > 90 | 10 to 100 | CCOc1cc(-c2ccc(N3CCC(CN(C)C(=O)CCCCN4CCC(c5ccc6c(c5)CN(C5CCC(=O)NC5=O)C6=O)CC4)(NC(=O)c4cc(F)ccc4F)CC3)nc2)c2c(C#N)cnn2c1 (centres unmarked) [Example 139, N-[1-(5-{3-cyano-6-ethoxypyrazolo[1,5-a]pyridin-4-yl}pyridin-2-yl)-4-[(5-{4-[2-(2,6-dioxopiperidin-3-yl)-1-oxo-2,3-dihydro-1H-isoindol-5-yl]piperidin-1-yl}-N-methylpentanamido)methyl]piperidin-4-yl]-2,5-difluorobenzamide] |
| > 90 | 2 to 10 | CCOc1cc(-c2ccc(N3CCC(CN(C(=O)CCCCN4CCN(c5ccc6c(c5)C(=O)N(C5CCC(=O)NC5=O)C6)CC4)C(C)C)(NC(=O)c4cc(F)ccc4F)CC3)nc2)c2c(C#N)cnn2c1 (centres unmarked) [Example 168, N-[1-(5-{3-cyano-6-ethoxypyrazolo[1,5-a]pyridin-4-yl}pyridin-2-yl)-4-[(5-{4-[2-(2,6-dioxopiperidin-3-yl)-3-oxo-2,3-dihydro-1H-isoindol-5-yl]piperazin-1-yl}-N-(propan-2-yl)pentanamido)methyl]piperidin-4-yl]-2,5-difluorobenzamide] |
| > 90 | 10 to 100 | CCOc1cc(-c2ccc(N3CCC(COCCN4CCN(C(=O)CCCCN5CCN(c6ccc7c(c6)CN(C6CCC(=O)NC6=O)C7=O)CC5)CC4)(NC(=O)c4cc(F)ccc4F)CC3)nc2)c2c(C#N)cnn2c1 (centres unmarked) [Example 35, N-[1-[5-(3-cyano-6-ethoxy-pyrazolo[1,5-a]pyridin-4-yl)-2-pyridyl]-4-[2-[4-[5-[4-[2-(2,6-dioxo-3-piperidyl)-1-oxo-isoindolin-5-yl]piperazin-1-yl]pentanoyl]piperazin-1-yl]ethoxymethyl]-4-piperidyl]-2,5-difluoro-benzamide] |
| > 90 | 2 to 10 | CCOc1cc(-c2ccc(N3CCC(CN4CCN(CCC(=O)N5CCC(c6ccc7c(c6)C(=O)N(C6CCC(=O)NC6=O)C7)CC5)CC4)(NC(=O)c4cc(F)ccc4F)CC3)nc2)c2c(C#N)cnn2c1 (centres unmarked) [Example 116, N-[1-(5-{3-cyano-6-ethoxypyrazolo[1,5-a]pyridin-4-yl}pyridin-2-yl)-4-{[4-(3-{4-[2-(2,6-dioxopiperidin-3-yl)-3-oxo-2,3-dihydro-1H-isoindol-5-yl]piperidin-1-yl}-3-oxopropyl)piperazin-1-yl]methyl}piperidin-4-yl]-2,5-difluorobenzamide] |
| > 90 | < 2 | CCOc1cc(-c2ccc(N3CCC(CN4CCN(C(=O)CCCCN5CCN(c6ccc7c(c6)C(=O)N(C6CCC(=O)NC6=O)C7)CC5)CC4)(NC(=O)c4cc(F)ccc4F)CC3)nc2)c2c(C#N)cnn2c1 (centres unmarked) [Example 13, N-(1-(5-(3-cyano-6-ethoxypyrazolo[1,5-a]pyridin-4-yl)pyridin-2-yl)-4-((4-(5-(4-(2-(2,6-dioxopiperidin-3-yl)-3-oxoisoindolin-5-yl)piperazin-1-yl)pentanoyl)piperazin-1-yl)methyl)piperidin-4-yl)-2,5-difluorobenzamide] |
| > 90 | 10 to 100 | CCOc1cc(-c2ccc(N3CCC(CN4CCN(C(=O)CCCCCCCCNc5cccc(NC6CCC(=O)NC6=O)c5)CC4)(NC(=O)c4cc(F)ccc4F)CC3)nc2)c2c(C#N)cnn2c1 (centres unmarked) [Example 23, N-[1-(5-{3-cyano-6-ethoxypyrazolo[1,5-a]pyridin-4-yl}pyridin-2-yl)-4-({4-[9-({3-[(2,6-dioxopiperidin-3-yl)amino]phenyl}amino)nonanoyl]piperazin-1-yl}methyl)piperidin-4-yl]-2,5-difluorobenzamide] |
| 60 to 90 | 10 to 100 | CCOc1cc(-c2ccc(N3CCC(CN4CCC5(CC4)CCN(C(=O)c4ccc6c(c4)C(=O)N(C4CCC(=O)NC4=O)C6)CC5)(NC(=O)c4cc(F)ccc4F)CC3)nc2)c2c(C#N)cnn2c1 (centres unmarked) [Example 96, N-[1-(5-{3-cyano-6-ethoxypyrazolo[1,5-a]pyridin-4-yl}pyridin-2-yl)-4-({9-[2-(2,6-dioxopiperidin-3-yl)-3-oxo-2,3-dihydro-1H-isoindole-5-carbonyl]-3,9-diazaspiro[5.5]undecan-3-yl}methyl)piperidin-4-yl]-2,5-difluorobenzamide] |
| 60 to 90 | < 2 | CCOc1cc(-c2ccc(N3CCC(NC(=O)c4cc(F)ccc4F)(C(=O)NCCN4CCN(c5ccc6c(c5)C(=O)N(C5CCC(=O)NC5=O)C6)CC4)CC3)nc2)c2c(C#N)cnn2c1 (centres unmarked) [Example 158, 1-(5-{3-cyano-6-ethoxypyrazolo[1,5-a]pyridin-4-yl}pyridin-2-yl)-4-(2,5-difluorobenzamido)-N-(2-{4-[2-(2,6-dioxopiperidin-3-yl)-3-oxo-2,3-dihydro-1H-isoindol-5-yl]piperazin-1-yl}ethyl)piperidine-4-carboxamide] |
| 60 to 90 | 10 to 100 | CCOc1cc(-c2ccc(N3CCC(CN4CCN(C(=O)CCCCCCCCNc5ccc6c(N7CCC(=O)NC7=O)nn(C)c6c5)CC4)(NC(=O)c4cc(F)ccc4F)CC3)nc2)c2c(C#N)cnn2c1 [Example 24, N-[1-(5-{3-cyano-6-ethoxypyrazolo[1,5-a]pyridin-4-yl}pyridin-2-yl)-4-{[4-(9-{[3-(2,4-dioxo-1,3-diazinan-1-yl)-1-methyl-1H-indazol-6-yl]amino}nonanoyl)piperazin-1-yl]methyl}piperidin-4-yl]-2,5-difluorobenzamide] |
| > 90 | 2 to 10 | CCOc1cc(-c2ccc(N3CCC(CN(C)C(=O)CCCCCCN4CCN(c5ccc6c(c5)C(=O)N(C5CCC(=O)NC5=O)C6)CC4)(NC(=O)c4cc(F)ccc4F)CC3)nc2)c2c(C#N)cnn2c1 (centres unmarked) [Example 143, N-[1-(5-{3-cyano-6-ethoxypyrazolo[1,5-a]pyridin-4-yl}pyridin-2-yl)-4-[(7-{4-[2-(2,6-dioxopiperidin-3-yl)-3-oxo-2,3-dihydro-1H-isoindol-5-yl]piperazin-1-yl}-N-methylheptanamido)methyl]piperidin-4-yl]-2,5-difluorobenzamide] |
| 60 to 90 | < 2 | CCOc1cc(-c2ccc(N3CCC(NC(=O)c4cc(F)ccc4F)(C(=O)NCCCCCCN4CCN(c5ccc6c(c5)CN(C5CCC(=O)NC5=O)C6=O)CC4)CC3)nc2)c2c(C#N)cnn2c1 (centres unmarked) [Example 155, 1-(5-{3-cyano-6-ethoxypyrazolo[1,5-a]pyridin-4-yl}pyridin-2-yl)-4-(2,5-difluorobenzamido)-N-(6-{4-[2-(2,6-dioxopiperidin-3-yl)-1-oxo-2,3-dihydro-1H-isoindol-5-yl]piperazin-1-yl}hexyl)piperidine-4-carboxamide] |
| 60 to 90 | 2 to 10 | CCOc1cc(-c2ccc(N3CCC(CN4CCN(C(=O)CCOCCN5CCN(c6ccc7c(c6)CN(C6CCC(=O)NC6=O)C7=O)CC5)CC4)(NC(=O)c4cc(F)ccc4F)CC3)nc2)c2c(C#N)cnn2c1 (centres unmarked) [Example 104, N-[1-(5-{3-cyano-6-ethoxypyrazolo[1,5-a]pyridin-4-yl}pyridin-2-yl)-4-({4-[3-(2-{4-[2-(2,6-dioxopiperidin-3-yl)-1-oxo-2,3-dihydro-1H-isoindol-5-yl]piperazin-1-yl}ethoxy)propanoyl]piperazin-1-yl}methyl)piperidin-4-yl]-2,5-difluorobenzamide] |
| > 90 | 10 to 100 | CCOc1cc(-c2ccc(N3CCC(COCCN4CCN(C(=O)CCN5CCN(c6ccc7c(c6)CN(C6CCC(=O)NC6=O)C7=O)CC5)CC4)(NC(=O)c4cc(F)ccc4F)CC3)nc2)c2c(C#N)cnn2c1 (centres unmarked) [Example 34, N-[1-[5-(3-cyano-6-ethoxy-pyrazolo[1,5-a]pyridin-4-yl)-2-pyridyl]-4-[2-[4-[3-[4-[2-(2,6-dioxo-3-piperidyl)-1-oxo-isoindolin-5-yl]piperazin-1-yl]propanoyl]piperazin-1-yl]ethoxymethyl]-4-piperidyl]-2,5-difluoro-benzamide] |
| > 90 | 10 to 100 | CCOc1cc(-c2ccc(N3CCC(NC(=O)c4cc(F)ccc4F)(C(=O)NCCCCCCCCCCNc4cccc5c(N6CCC(=O)NC6=O)nn(C)c45)CC3)nc2)c2c(C#N)cnn2c1 [Example 150, 1-(5-{3-cyano-6-ethoxypyrazolo[1,5-a]pyridin-4-yl}pyridin-2-yl)-4-(2,5-difluorobenzamido)-N-(10-{[3-(2,4-dioxo-1,3-diazinan-1-yl)-1-methyl-1H-indazol-7-yl]amino}decyl)piperidine-4-carboxamide] |
| > 90 | 2 to 10 | CCOc1cc(-c2ccc(N3CCC(CN(C)C(=O)CCCCCCN4CCN(c5ccc6c(c5)CN(C5CCC(=O)NC5=O)C6=O)CC4)(NC(=O)c4cc(F)ccc4F)CC3)nc2)c2c(C#N)cnn2c1 (centres unmarked) [Example 137, N-[1-(5-{3-cyano-6-ethoxypyrazolo[1,5-a]pyridin-4-yl}pyridin-2-yl)-4-[(7-{4-[2-(2,6-dioxopiperidin-3-yl)-1-oxo-2,3-dihydro-1H-isoindol-5-yl]piperazin-1-yl}-N-methylheptanamido)methyl]piperidin-4-yl]-2,5-difluorobenzamide] |
